Data published in patent US11576913B2 (priority 2018, dated 2023).
Read-outs that look alike come from different tables or passages of the source.

Columns and labels:
[1] = test system: subjects suffering from the Insomnia Disorder adult insomnia; assay type: in vivo, human; conditions: for mean change in DSST score net of placebo, compared with suvorexant: about 9 hours after administration, vs 10, 20 and 40 mg suvorexant, FIG. 11
Description: Literature data for indications of sleep efficacy and attendant residual effects after suvorexant administration, orally administered as BELSOMRA tablets at a single dose of 10 mg, 20 mg, and 40 mg, was available. Literature data for indications of sleep efficacy after zolpidem administration, orally administered as AMBIEN CR tablets, i.e., an extended-release tablet comprising the tartrate salt, in a single dose of 12.5 mg was also available. […] Additionally, the data shown in FIG. 8 through FIG. 11 are for the treatment effect net of placebo.

[2] = test system: subjects suffering from the Insomnia Disorder adult insomnia; assay type: in vivo, human
Description: Following the evening-time dosing with study drug, subjects underwent eight hours of continuous PSG recording. Next-day residual effects were assessed by the DSST and the KSS evaluation, collected in that order, starting at approximately 30 minutes after “lights-on.” All tests were administered in the clinical unit, beginning 30 minutes after lights-on and periodically thereafter for approximately 16 hours post-lights-off, following completion of PSG recording. Each subject also completed a post-sleep questionnaire once after lights-on so that subjective impressions could be assessed about the “quality” and “quantity” of their sleep. Before the second night dosing in each dosing period, subjects were evaluated for any residual sleepiness. […] Subjects remained in the clinic until residual symptoms were minimized.
The well-known DSST is a paper-and-pencil neuropsychological test that explores attention and psychomotor speed and was therefore useful as an indication of next day residual effects, if any. When administered in multiple sessions over time, the DSST provided an objective indication of the change in performance.
Each subject was asked to match symbols with their corresponding digit as follows. […] The subject filled in as many squares as possible during the allowed 90 second time limit. The score was determined from the number of correct symbols. An untimed 7 blank square practice opportunity was provided before the 90 second time period began. Six different versions of the test were used to avoid learning effects that could occur if only a single version was used.
The DSST was administered starting approximately ½ hour after lights-on (i.e., about 9 hours post-dosing) and at about 1, 3, 4, 5, and 7 hours thereafter following completion of PSG recordings after each night of the baseline visit (Visit 2) and after each night of Dosing Periods 1-5.
The DSST results shown, other than for the baseline, are the mean results obtained from the DSST scores following all nights of Dosing Periods 1-5 for the indicated dose. The DSST results for the baseline are the mean results obtained following the first and second nights of the baseline visit. Note that for clarity of display purposes, in FIG. 6 many of the test results at each time period, e.g., at approximately ½ hour after lights-on/9 hours post-dosing, were staggered arbitrarily away from the actual time when the test was conducted.

[3] = assay type: in vivo, rat; conditions: within 48 hours of oral dosing
From the text: Specifically, liquid scintillation counting (“LSC”) was used for the determination of total radiolabeled Compound (1C) material, i.e., the original or parent compound and its metabolites. […] Using ^14C as a radiolabel for pharmacokinetic studies is a recognized technique and embedding the radiolabel into the ring structure was done to limit migration or exchange of the radiolabel to non-Compound (1C)-related molecules. The specific radioactivity for the lot of [^14C]-Compound (1C) synthesized was 2.50 MBq/mg (67.6 μCi/mg) [3.49 MBq/mg (94.4 μCi/mg) if the material were to be present as the free base form] with a radiochemical purity of greater than 98.5% as determined by HPLC. The synthesized radiolabeled [^14C]-Compound (1C) was stored away from light at a temperature of −80° C. before use.
Following oral administration of [^14C]-Compound (1C) (in an appropriate vehicle, e.g., a methyl cellulose suspension) to the experimental animals, excreta samples were collected over specified time intervals. Urine samples were collected at fixed intervals post dosing. Fecal samples were homogenized and diluted prior to being solubilized. Aliquots of these samples were counted following the addition of liquid scintillation fluid thereto. Detection limits for radioactivity in the excreta samples were set at twice the background count (from blank samples) as determined by LSC. The [^14C]-Compound (1C) was stable for about 4-5 hours in urine at a temperature of about 25° C. and, when kept refrigerated at 4° C., for up to 15 days (rat urine) and 36 days (dog urine). Recovery of [^14C]-Compound (1C) from rat urine was typically from about 91.6 to about 99.1%.

clinical = assay type: in vivo, human; conditions: for mean fraction of dose excreted unchanged in urine over 48 hours (Fe48): day 1; for mean fraction of dose excreted unchanged in urine over 24 hours (Fe24): day 16

## O=C(O)c1nc2ccccc2n([C@H]2C[C@H]3CCC[C@@H](C2)N3C2CC3CCCC(C3)C2)c1=O (stereo partly shown) [Compound (1C)]
[1]; 0.5 mg Compound (1C) vs 10 mg or 20 mg suvorexant, Night 1, FIG. 9
  mean improvement in WASO net of placebo, compared with suvorexant: nearly comparable to
[1]; 0.5 mg Compound (1C) vs 12.5 mg zolpidem, Night 1, FIG. 9
  mean improvement in WASO net of placebo, compared with zolpidem: far greater than
[1]; 0.5 mg
  mean change in DSST score net of placebo, compared with suvorexant: small and comparable
[1]; 1.0 mg Compound (1C) vs 10 mg suvorexant, Night 1, FIG. 8
  mean improvement in SE net of placebo, compared with suvorexant: greater than
[1]; 1.0 mg Compound (1C) vs 12.5 mg zolpidem, Night 1, FIG. 8
  mean improvement in SE net of placebo, compared with zolpidem: greater than
[1]; 1.0 mg Compound (1C) vs 40 mg suvorexant, Night 1, FIG. 9
  mean improvement in WASO net of placebo, compared with suvorexant: nearly comparable to
[1]; 1.0 mg
  mean change in DSST score net of placebo, compared with suvorexant: small and comparable
[1]; 6.0 mg Compound (1C) vs 10 mg suvorexant, Night 1, FIG. 10
  mean improvement in LPS net of placebo, compared with suvorexant: comparable to
[1]; 6.0 mg Compound (1C) vs 40 mg suvorexant, Night 1, FIG. 8
  mean improvement in SE net of placebo, compared with suvorexant: comparable to
[1]; up to 6.0 mg Compound (1C) vs 20 mg suvorexant or 12.5 mg zolpidem, Night 1, FIG. 10
  mean improvement in LPS net of placebo, compared with suvorexant or zolpidem: not as great as
[2]; 0.5 mg, about 9 to about 16 hours post-dosing
  next day residual effects by mean DSST results vs placebo: no next day residual effects
[2]; 1.0 mg, about 9 to about 16 hours post-dosing
  next day residual effects by mean DSST results vs placebo: no next day residual effects
[2]; 3.0 mg, deviations at about 9, 10, 12, and 13 hours
  next day residual effects by mean DSST results vs placebo: minimal next day residual effects
[2]; 6.0 mg, each of the testing times
  next day residual effects by mean DSST results vs placebo: some next day residual effects
[3]; Rat (female)
  Average % Elimination, Fecal: 27.9%
  Average % Elimination, Fecal + Urinary: 94.7%
  Average % Elimination, Urinary: 66.8%
[3]; Rat (male)
  Average % Elimination, Fecal: 41.6%
  Average % Elimination, Fecal + Urinary: 96.0%
  Average % Elimination, Urinary: 54.4%
clinical; 0.6 mg
  mean fraction of dose excreted unchanged in urine over 48 hours (Fe48): 96%
  mean fraction of dose excreted unchanged in urine over 24 hours (Fe24): 90%
clinical; 2 mg
  mean fraction of dose excreted unchanged in urine over 48 hours (Fe48): 100%
  mean fraction of dose excreted unchanged in urine over 24 hours (Fe24): 102%
clinical; 10 mg
  mean fraction of dose excreted unchanged in urine over 48 hours (Fe48): 84%
  mean fraction of dose excreted unchanged in urine over 24 hours (Fe24): 81%
clinical; across the dose range, days 1 and 16
  time of urinary excretion of most of the unchanged compound: during the first 8 hours
clinical; human, in vivo, all dose levels, days 1 and 16, read-out: mean CLr
  CL renal: 274 to 354 mL/min
